The test addresses Dephosphorylated BTK (Homo sapiens, UniProt Q06187). Put plainly: Test of activity inhibition against dephosphorylated BTK (mobility shift assay).

Here are results for 27 molecules from patent US20150011751A1, “NOVEL TRIAZINE DERIVATIVE” (CARNA BIOSCIENCES, INC., priority 2012, published 2015).

What is called IC50 is the concentration needed to halve the response being measured.

Chain of Dephosphorylated BTK (Q06187 whole entry): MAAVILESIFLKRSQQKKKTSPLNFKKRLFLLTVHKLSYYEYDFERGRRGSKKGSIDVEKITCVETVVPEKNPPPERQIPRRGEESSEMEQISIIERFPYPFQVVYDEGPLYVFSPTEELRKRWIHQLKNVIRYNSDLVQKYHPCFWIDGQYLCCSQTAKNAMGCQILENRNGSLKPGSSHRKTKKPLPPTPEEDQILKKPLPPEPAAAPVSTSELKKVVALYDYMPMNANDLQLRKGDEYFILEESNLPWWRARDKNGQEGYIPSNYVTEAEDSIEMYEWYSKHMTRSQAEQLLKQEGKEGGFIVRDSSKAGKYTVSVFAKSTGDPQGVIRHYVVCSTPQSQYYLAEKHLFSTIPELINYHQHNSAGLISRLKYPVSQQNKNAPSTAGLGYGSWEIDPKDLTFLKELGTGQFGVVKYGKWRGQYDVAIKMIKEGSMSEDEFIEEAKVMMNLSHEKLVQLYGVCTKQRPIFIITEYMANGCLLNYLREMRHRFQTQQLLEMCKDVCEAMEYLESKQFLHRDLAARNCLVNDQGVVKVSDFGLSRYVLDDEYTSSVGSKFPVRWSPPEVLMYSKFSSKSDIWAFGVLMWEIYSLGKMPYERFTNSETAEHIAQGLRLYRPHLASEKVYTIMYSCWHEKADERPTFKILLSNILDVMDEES

As to `CC(C)(C)c1cc2c(s1)C(=O)N(c1cccc(-c3nc(N)nc(Nc4ccc(CN5CCOCC5)cc4)n3)c1CO)C2` [Example 77, 5-[3-(4-Amino-6-{[4-(morpho-linomethyl)phe-nyl]amino}-1,3,5-triazin-2-yl)-2-(hydroxymeth-yl)phenyl]-2-(tert-butyl)-4H-thieno[2,3-c]pyrrol-6(5H)-one], the IC50 turned out to be 3.4 nM.

With `CC(C)(C)c1ccc(C(=O)Nc2cccc(-c3nc(N)nc(Nc4ccc(OCCO)cc4)n3)c2CO)cc1` [Example 184, N-[3-(4-Amino-6-{[4-(2-hydroxyethoxy)phenyl]amino}-1,3,5-triazin-2-yl)-2-(hydroxymeth-yl)phenyl]-4-(tert-butyl)benzamide], the 50% inhibitory concentration (IC50) is 0.8 nM. For `CC(C)(C)c1cc2c(s1)C(=O)N(c1cccc(-c3nc(N)nc(Nc4ccc(N5CCOCC5)cc4)n3)c1CO)C2` [Example 73, 5-(3-{4-Amino-6-[(4-morpho-linophenyl)amino]-1,3,5-triazin-2-yl}-2-(hydroxymethyl)phe-nyl)-2-(tert-butyl)-4H-thieno[2,3-c]pyrrol-6(5H)-one], the IC50 was 1.3 nM. Under `Cc1c(NC(=O)c2ccc(C(C)(C)C)cc2)cccc1-c1ncnc(Nc2ccc(C(=O)NCCN(C)C)cc2)n1` [Example 17, 4-(tert-Butyl)-N-(3-{4-[(4-{[2-(dimethylami-no)ethyl]carbamoyl}phe-nyl)amino]-1,3,5-tri-azin-2-yl)-2-methyl-phenyl)benzamide] stands 5.1 nM. `Nc1nc(Nc2ccn(CC3CC3)c2)nc(-c2cccc(N3CCc4cc(C5CC5)cc(F)c4C3=O)c2CO)n1` [Example 248, 2-[3-(4-Amino-6-{[1-(cyclo-propylmethyl)-1H-pyrrol-3-yl]amino}-1,3,5-triazin-2-yl)-2-(hydroxymethyl)phenyl]-6-cyclopropyl-8-fluoro-3,4-dihydroisoquinolin-1(2H)-one]: the IC50 is 3.2 nM.

In the case of `Nc1nc(Nc2ccc(CN3CCOCC3)cc2)nc(-c2cccc(N3CCc4cc(C5CC5)cc(F)c4C3=O)c2CO)n1` [Example 45, 2-[3-(4-Amino-6-{[4-(morpho-linomethyl)phe-nyl]amino}-1,3,5-tri-azin-2-yl)-2-(hydroxymeth-yl)phenyl]-6-cyclopro-pyl-8-fluoro-3,4-di-hydroisoquinolin-1(2H)-one], the concentration for half-maximal inhibition (IC50) amounted to 1.7 nM.

On to `CC(C)(C)c1ccc(C(=O)Nc2cccc(-c3nc(N)nc(Nc4ccc5c(c4)OCC(=O)N5)n3)c2CO)cc1` [Example 154, N-(3-{4-Amino-6-[(3-oxo-3,4-dihydro-2H-ben-zo[b][1,4]oxazin-7-yl)amino]-1,3,5-triazin-2-yl}-2-(hydroxymeth-yl)benzyl)-4-(tert-bu-tyl)benzamide], for which the IC50 is 0.9 nM.

Turning to `Nc1nc(Nc2cccc(Cn3cncn3)c2)nc(-c2cccc(N3CCc4cc(C5CC5)cc(F)c4C3=O)c2CO)n1` [Example 51, 2-{3-[4-({3-[(1H-1,2,4-Triazol-1-yl)methyl]phenyl}amino)-6-amino-1,3,5-triazin-2-yl]-2-(hydroxymethyl)phe-nyl}-6-cyclopropyl-8-fluoro-3,4-dihydroiso-quinolin-1(2H)-one], the IC50 was found to be 2 nM. Take `CC(C)(C)c1ccc(C(=O)Nc2cccc(-c3nc(N)nc(Nc4ccc(CN5CCC(O)CC5)cc4)n3)c2CO)cc1` [Example 94, N-{3-[4-Amino-6-({4-[(4-hydroxypiperidin-1-yl)methyl]phenyl}ami-no)-1,3,5-triazin-2-yl]-2-(hydroxymethyl)phe-nyl}-4-(tert-butyl) benzamide]: the IC50 was 0.4 nM. The figure for `CC(C)(C)c1ccc(C(=O)Nc2cccc(-c3nc(N)nc(Nc4ccc(Cn5cncn5)cc4)n3)c2CO)cc1` [Example 164, N-{3-[4-({4-[(1H-1,2,4-Triazol-1-yl)methyl]phenyl}amino)-6-amino-1,3,5-triazin-2-yl]-2-(hydroxymethyl)phe-nyl}-4-(tert-butyl) benzamide] is 0.5 nM. `COCCOc1ccc(Nc2nc(N)nc(-c3cccc(N4CCc5cc(C6CC6)cc(F)c5C4=O)c3CO)n2)cc1OCCOC` [Example 48, 2-[3-(4-Amino-6-{[3,4-bis(2-methoxyethoxy)phenyl]amino}-1,3,5-tri-azin-2-yl}-2-(hydroxy-methyl)phenyl]-6-cyclo-propyl-8-fluoro-3,4-dihydroisoquinolin-1(2H)-one]: the half-inhibitory concentration (IC50) is 3.4 nM.

Turning to `Nc1nc(Nc2ccc(Cc3nnn[nH]3)cc2)nc(-c2cccc(N3CCc4cc(C5CC5)cc(F)c4C3=O)c2CO)n1` [Example 198, 2-{3-[4-({4-[(1H-Tetra-zol-5-yl)methyl]phe-nyl}amino)-6-amino-1,3,5-triazin-2-yl]-2-(hy-droxymethyl)phenyl}-6-cyclopropyl-8-fluoro-3,4-dihydroisoquinolin-1(2H)-one], the IC50 was found to be 3.7 nM.

As for `CC(C)(C)c1ccc(C(=O)Nc2cccc(-c3nc(N)nc(Nc4ccc(OCCCO)cc4)n3)c2CO)cc1` [Example 200, N-[3-(4-Amino-6-{[4-(3-hydroxypropoxy)phe-nyl]amino}-1,3,5-triazin-2-yl)-2-(hydroxymeth-yl)phenyl]-4-(tert-butyl)benzamide], the IC50 came to 0.8 nM. In the case of `CC(C)(C)c1ccc(C(=O)Nc2cccc(-c3nc(N)nc(Nc4ccc(-c5nn[nH]n5)cc4)n3)c2CO)cc1` [Example 202, N-[3-(4-{[4-(1H-Tetra-zol-5-yl)phenyl]amino}-6-amino-1,3,5-triaz-in-2-yl)-2-(hydroxy-methyl)phenyl]-4-(tert-butyl)benzamide], the IC50 came to 1.3 nM. The figure for `CC(C)(F)c1ccc(C(=O)Nc2cccc(-c3nc(N)nc(Nc4ccc(N5CCOCC5)cc4)n3)c2CO)cc1` [Example 209, N-(3-{4-Amino-6-[(4-morpholinophenyl)amino]-1,3,5-triazin-2-yl}-2-(hydroxymethyl)phe-nyl)-4-(2-fluoropropan-2-yl)benzamide] is 1.4 nM. Consider `CC(C)(C)c1ccc(C(=O)Nc2cccc(-c3nc(N)nc(Nc4cccc(Cn5cccn5)c4)n3)c2CO)cc1` [Example 161, N-{3-[4-({3-[(1H-Pyra-zol-1-yl)methyl]phenyl}amino)-6-amino-1,3,5-triazin-2-yl]-2-(hy-droxymethyl)phenyl}-4-(tert-butyl)benzamide], for which the IC50 came to 1.1 nM. On to `COCCN(CCOC)Cc1ccc(Nc2nc(N)nc(-c3cccc(NC(=O)c4ccc(C(C)(C)C)cc4)c3CO)n2)cc1` [Example 105, N-(3-{4-Amino-6-[(4-{[bis (2-methoxyethyl)ami-no]methyl}phenyl)ami-no)-1,3,5-triazin-2-yl]-2-(hydroxymethyl)phenyl}-4-(tert-butyl) benzamide], for which the IC50 came to 0.9 nM. The figure for `CC(C)(C)c1ccc(C(=O)Nc2cccc(-c3nc(N)nc(Nc4ccc(N5CCOCC5)cn4)n3)c2CO)cc1` [Example 99, N-(3-{4-Amino-6-[(5-morpholinopyridin-2-yl)amino]-1,3,5-triazin-2-yl}-2-(hydroxymeth-yl)phenyl)-4-(tert-butyl)benzamide] is 10.6 nM; for `CN1CCN(C)C(c2ccc(Nc3nc(N)nc(-c4cccc(NC(=O)c5cc6c(s5)CCCC6)c4CO)n3)cc2)C1=O` (stereo not drawn) [Example 130, N-[3-(4-Amino-6-{[4-(1,4-dimethyl-3-oxopipe-razin-2-yl)phenyl]ami-no}-1,3,5-triazin-2-yl)-2-(hydroxymethyl)phenyl]-4,5,6,7-tetra-hydrobenzo[b]thiophene-2-carboxamide] it is 0.5 nM; for `Nc1nc(Nc2ccc(CN3CCOCC3)cc2)nc(-c2cccc(NC(=O)c3cc4c(s3)CCCC4)c2CO)n1` [Example 132, N-[3-(4-Amino-6-{[4-(mor-pholinomethyl)phe-nyl]amino}-1,3,5-triazin-2-yl)-2-(hydroxymeth-yl)phenyl]-4,5,6,7-tetrahydrobenzo[b]thio-phene-2-carboxamide] it is 0.5 nM. Regarding `Nc1nc(Nc2ccc(N3CCC(O)CC3)cc2)nc(-c2cccc(NC(=O)c3cc4c(s3)CCCC4)c2CO)n1` [Example 128, N-[3-(4-Amino-6-{[4-(4-hydroxypiperidin-1-yl)phenyl]amino}-1,3,5-triazin-2-yl)-2-(hy-droxymethyl)phenyl]-4,5,6,7-tetrahydrobenzo [b]thiophene-2-carbox-amide], the IC50 was determined as 0.6 nM. Under `CC(C)(C)c1ccc(C(=O)Nc2cccc(-c3nc(N)nc(Nc4ccc(C[C@H]5COC(=O)N5)cc4)n3)c2CO)cc1` [Example 203, N-{3-[4-Amino-6-({4-[(2-oxooxazolidin-4-yl)methyl]phenyl}amino)-1,3,5-triazin-2-yl]-2-(hydroxymethyl)phe-nyl}-4-(tert-butyl) benzamide] stands 0.4 nM; under `CC(C)(C)c1ccc(C(=O)Nc2cccc(-c3nc(N)nc(Nc4ccc(N5CCNCC5)cc4)n3)c2CO)cc1` [Example 126, N-[3-(4-Amino-6-{[4-(piperazin-1-yl)phenyl]amino}-1,3,5-triazin-2-yl)-2-(hydroxymeth-yl)phenyl]-4-(tert-butyl)benzamide], 0.5 nM; under `CC(C)(C)c1ccc(C(=O)Nc2cccc(-c3nc(N)nc(Nc4ccc(Cn5cccn5)cc4)n3)c2CO)cc1` [Example 160, N-{3-[4-({4-[(1H-Pyra-zol-1-yl)methyl]phenyl}amino)-6-amino-1,3,5-triazin-2-yl]-2-(hy-droxymethyl)phenyl}-4-(tert-butyl)benzamide], 0.8 nM. Under `Nc1nc(Nc2ccn([C@H]3CCOC3)c2)nc(-c2cccc(N3CCc4cc(C5CC5)cc(F)c4C3=O)c2CO)n1` [Example 249, (S)-2-[3-(4-Amino-6-{[1-(tetrahydrofuran-3-yl)-1H-pyrrol-3-yl]ami-no}-1,3,5-triazin-2-yl)-2-(hydroyxmethyl)phenyl]-6-cyclopropyl-8-fluoro-3,4-dihydro-isoquinolin-1(2H)-one] stands 1 nM. The figure for `Nc1nc(Nc2cnn(C3CCCC3)c2)nc(-c2cccc(N3CCc4cc(C5CC5)cc(F)c4C3=O)c2CO)n1` [Example 239, 2-(3-{4-Amino-6-[(1-cyclo-pentyl-1H-pyrazol-4-yl)amino]-1,3,5-tri-azin-2-yl}-2-(hydroxy-methyl)phenyl)-6-cyclo-propyl-8-fluoro-3,4-dihydroisoquinolin-1 (2H)-one] is 0.5 nM; for `CC(C)(C)c1ccc(C(=O)Nc2cccc(-c3nc(N)nc(Nc4cccc(CN5CCOCC5)c4)n3)c2CO)cc1` [Example 163, N-[3-(4-Amino-6-{[3-(morpholinomethyl)phe-nyl]amino}-1,3,5-triazin-2-yl)-2-(hydroxymeth-yl)phenyl]-4-(tert-butyl)benzamide] it is 1 nM.
